Columns and labels:
Format in all cases: functional
[1] = tested on: Rattus norvegicus; assay: Percent protection in paracetamol-induced model using glutamate pyruvate transaminase(GPT) when peroral administration of compound 6 mg/kg for 7 days; conditions: route oral
[2] = tested on: Rattus norvegicus; assay: Percent protection in carbon tetrachloride-induced model using alkaline phosphatase(ALP) when peroral administration of compound 6 mg/kg for 7 days; conditions: route oral
[3] = tested on: Rattus norvegicus; assay: Percent protection in carbon tetrachloride-induced model using glutamate dehydrogenase(GIDH) when peroral administration of compound 6 mg/kg for 7 days; conditions: route oral
[4] = tested on: Rattus norvegicus; assay: Percent protection in carbon tetrachloride-induced model using glutamate oxaloacetate transaminase(GOT) when peroral administration of compound 6 mg/kg for 7 days; conditions: route oral
[5] = tested on: Rattus norvegicus; assay: Percent protection in carbon tetrachloride-induced model using glutamate pyruvate transaminase(GPT) when peroral administration of compound 6 mg/kg for 7 days; conditions: route oral
[6] = tested on: Rattus norvegicus; assay: Percent protection in galactosamine-induced model using acid phosphatase(ACP)when peroral administration of compound 6 mg/kg for 7 days; conditions: route oral
[7] = tested on: Rattus norvegicus; assay: Percent protection in galactosamine-induced model using alkaline phosphatase(ALP) when peroral administration of compound 6 mg/kg for 7 days; conditions: route oral
[8] = tested on: Rattus norvegicus; assay: Percent protection in galactosamine-induced model using glutamate dehydrogenase(GIDH) when peroral administration of compound 6 mg/kg for 7 days; conditions: route oral
[9] = tested on: Rattus norvegicus; assay: Percent protection in galactosamine-induced model using glutamate oxaloacetate transaminase(GOT) when peroral administration of compound 6 mg/kg for 7 days; conditions: route oral
[10] = tested on: Rattus norvegicus; assay: Percent protection in paracetamol-induced model using acid phosphatase(ACP) when peroral administration of compound 6 mg/kg for 7 days; conditions: route oral
[11] = tested on: Rattus norvegicus; assay: Percent protection in paracetamol-induced model using alkaline phosphatase(ALP) at peroral dose of 6 mg/kg for 7 days; conditions: route oral
[12] = tested on: Rattus norvegicus; assay: Percent protection in paracetamol-induced model using glutamate dehydrogenase(GIDH) when peroral administration of compound 6 mg/kg for 7 days; conditions: route oral
[13] = tested on: Rattus norvegicus; assay: Percent protection in paracetamol-induced model using glutamate oxaloacetate transaminase(GOT) when peroral administration of compound 6 mg/kg for 7 days; conditions: route oral
[14] = organism: Rattus norvegicus; assay: Percent protection against thioacetamide-induced toxicity in rats using acid phosphatase(ACP); parameters: concentration or dose not given beside the values
[15] = tested on: Rattus norvegicus; assay: Percent protection against thioacetamide-induced toxicity in rats using alkaline phosphatase (ALP) when peroral administration of compound 6 mg/kg for 7 days; conditions: route oral
[16] = tested on: Rattus norvegicus; assay: Percent protection against thioacetamide-induced toxicity in rats using glutamate dehydrogenase (GIDH) when peroral administration of compound 6 mg/kg for 7 days; conditions: route oral
[17] = tested on: Rattus norvegicus; assay: Percent protection against thioacetamide-induced toxicity in rats using glutamate oxaloacetate transaminase (GOT) when peroral administration of compound 6 mg/kg for 7 days; conditions: route oral
[18] = tested on: Rattus norvegicus; assay: Percent protection against thioacetamide-induced toxicity in rats using glutamate pyruvate transaminase (GPT) when peroral administration of compound 6 mg/kg for 7 days; conditions: route oral
[19] = tested on: Rattus norvegicus; assay: Percent protection in alcohol-induced model using acid phosphatase(ACP) at peroral dose of 6 mg/kg for 7 days; conditions: route oral
[20] = tested on: Rattus norvegicus; assay: Percent protection in carbon tetrachloride-induced model using acid phosphatase(ACP) when peroral administration of compound 6 mg/kg for 7 days; conditions: route oral
[21] = tested on: Rattus norvegicus; assay: Percent protection in alcohol-induced model using acid phosphatase(ACP) when peroral administration of compound 12 mg/kg for 7 days; conditions: route oral
[22] = tested on: Rattus norvegicus; assay: Percent protection in alcohol-induced model using alkaline phosphatase(ALP) when peroral administration of compound 12 mg/kg for 7 days; conditions: route oral
[23] = tested on: Rattus norvegicus; assay: Percent protection in alcohol-induced model using alkaline phosphatase(ALP) when peroral administration of compound 6 mg/kg for 7 days; conditions: route oral
[24] = tested on: Rattus norvegicus; assay: Percent protection in alcohol-induced model using glutamate dehydrogenase(GIDH) when peroral administration of compound 12 mg/kg for 7 days; conditions: route oral
[25] = tested on: Rattus norvegicus; assay: Percent protection in alcohol-induced model using glutamate dehydrogenase(GIDH) when peroral administration of compound 6 mg/kg for 7 days; conditions: route oral
[26] = tested on: Rattus norvegicus; assay: Percent protection in alcohol-induced model using glutamate oxaloacetate transaminase(GOT) when peroral administration of compound 12 mg/kg for 7 days; conditions: route oral
[27] = tested on: Rattus norvegicus; assay: Percent protection in alcohol-induced model using glutamate oxaloacetate transaminase(GOT) when peroral administration of compound 6 mg/kg for 7 days; conditions: route oral
[28] = tested on: Rattus norvegicus; assay: Percent protection in alcohol-induced model using glutamate pyruvate transaminase(GPT) at peroral dose of 12 mg/kg for 7 days; conditions: route oral
[29] = tested on: Rattus norvegicus; assay: Percent protection in alcohol-induced model using glutamate pyruvate transaminase(GPT) when peroral administration of compound 6 mg/kg for 7 days; conditions: route oral
[30] = tested on: Rattus norvegicus; assay: Percent protection in galactosamine-induced model using glutamate pyruvate transaminase(GPT) when peroral administration of compound 6 mg/kg for 7 days; conditions: route oral

Question: For `CSc1cc(-c2ccc(Cl)cc2)oc(=O)c1C#N`, which Protection [1] is on record?
Answer: The Protection was 81%.

Question: And the Protection [2]?
Answer: Its Protection is 57%.

Question: And the Protection [3]?
Answer: Its Protection is 58%.

Question: And the Protection [4]?
Answer: Its Protection is 59%.

Question: And the Protection [5]?
Answer: The Protection was 67%.

Question: And the Protection [6]?
Answer: Its Protection is 66%.

Question: And the Protection [7]?
Answer: Its Protection is 68%.

Question: What about the Protection [8] of the same molecule?
Answer: Its Protection is 57%.

Question: What about the Protection [9] of the same molecule?
Answer: Its Protection is 86%.

Question: And the Protection [10]?
Answer: The Protection was 90%.

Question: What about the Protection [11] of the same molecule?
Answer: Its Protection is 73%.

Question: And the Protection [12]?
Answer: The Protection was 54%.

Question: What about the Protection [13] of the same molecule?
Answer: The Protection was 73%.

Question: And the Protection [14]?
Answer: Its Protection is 59%.

Question: What about the Protection [15] of the same molecule?
Answer: Its Protection is 65%.

Question: And the Protection [16]?
Answer: Its Protection is 51%.

Question: What about the Protection [17] of the same molecule?
Answer: Its Protection is 68%.

Question: What about the Protection [18] of the same molecule?
Answer: Its Protection is 69%.

Question: And the Protection [19]?
Answer: The Protection was 53%.

Question: And the Protection [20]?
Answer: Its Protection is 70%.

Question: What about the Protection [21] of the same molecule?
Answer: The Protection was 74%.

Question: What about the Protection [22] of the same molecule?
Answer: The Protection was 56%.

Question: And the Protection [23]?
Answer: Its Protection is 24%.

Question: What about the Protection [24] of the same molecule?
Answer: Its Protection is 62%.

Question: And the Protection [25]?
Answer: The Protection was 40%.

Question: And the Protection [26]?
Answer: Its Protection is 58%.

Question: And the Protection [27]?
Answer: The Protection was 34%.

Question: What about the Protection [28] of the same molecule?
Answer: The Protection was 69%.

Question: What about the Protection [29] of the same molecule?
Answer: Its Protection is 48%.

Question: And the Protection [30]?
Answer: The Protection was 76%.

— ChEMBL document CHEMBL1129819, “Polysubstituted 2H-pyran-2-ones: A new class of hepatoprotective agents” (1997)
